Source: patent US10259810B2, “N-sulfonylated pyrazolo[3,4-b]pyridin-6-carboxamides and method of use” (AbbVie S.à.r.l., priority 2015, dated 2019)

Legend:
ΔF508-CFTR [1] = biological target: T1, ΔF508-CFTR (Homo sapiens, UniProt P13569, DEL508-508); test: CFTR cell surface levels using HRP-tagged ΔF508-CFTR expressing CFBE cells, intrinsic corrector capacity; assay type: cell-based; design: % Activation: concentration or dose not given beside the values
T1 construct: host or cells: CFBE41o-, doxycycline-inducible
Method in brief: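 Surface ΔF508-CFTR was measured as HRP chemiluminescence from an extracellular-loop-4 tag, expressed as percent activity between DMSO and a […] corrector control.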

ΔF508-CFTR [2] = biological target: T1, ΔF508-CFTR; test: CFTR cell surface levels using HRP-tagged ΔF508-CFTR expressing CFBE cells, in the presence of a co-corrector; assay type: cell-based
Method in brief: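 Chemiluminescent read-out of surface HRP (15 min, dark) after PBS washes. Activity is normalized as 100×(sample−DMSO)/(3 μM co-corrector alone−DMSO).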

[3] = HRP-tagged ΔF508-CFTR expressing CFBE41o- cells, compound alone (intrinsic corrector capacity), 20 hours at 33° C.
[4] = HRP-tagged ΔF508-CFTR expressing CFBE41o- cells, compound alone (intrinsic corrector capacity), 20 hours at 33° C., read-out: EC50
[5] = HRP-tagged ΔF508-CFTR CFBE cells, in the presence of 3 μM co-corrector
[6] = HRP-tagged ΔF508-CFTR CFBE cells, in the presence of 3 μM co-corrector, read-out: EC50

T1 sequence (P13569 with tags, fused parts or gaps DEL508-508): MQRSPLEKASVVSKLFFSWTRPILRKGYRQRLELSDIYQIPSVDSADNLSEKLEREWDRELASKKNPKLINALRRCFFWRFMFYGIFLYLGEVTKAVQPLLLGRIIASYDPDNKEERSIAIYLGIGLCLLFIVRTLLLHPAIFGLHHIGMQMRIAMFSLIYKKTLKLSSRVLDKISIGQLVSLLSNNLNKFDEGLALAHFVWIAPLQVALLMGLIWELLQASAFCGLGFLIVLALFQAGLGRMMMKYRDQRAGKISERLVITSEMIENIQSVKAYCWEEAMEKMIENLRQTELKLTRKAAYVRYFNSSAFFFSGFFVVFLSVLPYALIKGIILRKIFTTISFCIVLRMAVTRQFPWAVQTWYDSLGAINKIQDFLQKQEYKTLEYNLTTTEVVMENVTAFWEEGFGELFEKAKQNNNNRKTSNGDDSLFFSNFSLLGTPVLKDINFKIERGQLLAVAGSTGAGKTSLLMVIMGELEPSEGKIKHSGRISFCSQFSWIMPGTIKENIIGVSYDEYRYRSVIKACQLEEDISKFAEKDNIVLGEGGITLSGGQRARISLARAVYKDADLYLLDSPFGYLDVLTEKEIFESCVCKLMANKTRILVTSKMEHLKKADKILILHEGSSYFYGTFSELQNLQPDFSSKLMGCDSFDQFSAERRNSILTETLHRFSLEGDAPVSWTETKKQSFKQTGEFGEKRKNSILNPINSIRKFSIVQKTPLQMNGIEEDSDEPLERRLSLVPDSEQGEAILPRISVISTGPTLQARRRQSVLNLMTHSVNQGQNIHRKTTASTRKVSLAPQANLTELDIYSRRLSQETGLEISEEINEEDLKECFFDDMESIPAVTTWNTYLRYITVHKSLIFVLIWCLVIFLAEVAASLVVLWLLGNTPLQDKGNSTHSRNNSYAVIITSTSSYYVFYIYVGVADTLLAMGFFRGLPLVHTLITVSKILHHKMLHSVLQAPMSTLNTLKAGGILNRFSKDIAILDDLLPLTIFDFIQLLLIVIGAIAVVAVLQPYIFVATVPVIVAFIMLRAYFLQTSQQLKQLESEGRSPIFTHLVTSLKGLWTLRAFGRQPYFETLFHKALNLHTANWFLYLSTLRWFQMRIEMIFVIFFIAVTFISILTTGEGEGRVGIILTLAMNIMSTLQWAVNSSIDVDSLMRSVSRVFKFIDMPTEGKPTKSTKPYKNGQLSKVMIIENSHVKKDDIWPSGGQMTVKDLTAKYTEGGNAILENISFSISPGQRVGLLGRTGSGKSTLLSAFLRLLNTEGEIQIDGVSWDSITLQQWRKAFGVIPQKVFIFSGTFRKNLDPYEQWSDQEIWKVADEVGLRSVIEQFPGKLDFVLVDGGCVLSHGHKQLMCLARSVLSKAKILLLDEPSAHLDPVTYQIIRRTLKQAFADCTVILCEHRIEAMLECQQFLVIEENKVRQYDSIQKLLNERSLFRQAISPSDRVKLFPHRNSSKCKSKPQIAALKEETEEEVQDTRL

| Compound | % Activation (ΔF508-CFTR [1]; [3]) [%] | EC50 (ΔF508-CFTR [1]; [4]) [nM] | % Activation (ΔF508-CFTR [2]; [5]) [%] | EC50 (ΔF508-CFTR [2]; [6]) [nM] | EC50 (ΔF508-CFTR [1]) [nM] | EC50 (ΔF508-CFTR [2]) [nM] |
| --- | --- | --- | --- | --- | --- | --- |
| CC(C)Oc1nn(C2CCCCC2)c2nc(C(=O)NS(=O)(=O)N(C)C)cc(-c3ccc(CN4CCCC4)cc3)c12 [Compound 444, 1-cyclohexyl-N-(dimethylsulfamoyl)-3-[(propan-2-yl)oxy]-4-{4-[(pyrrolidin-1-yl)methyl]phenyl}-1H-pyrazolo[3,4-b]pyridine-6-carboxamide] | 162.5 | 345 | 361.3 | 235 |  |  |
| CS(=O)(=O)NC(=O)c1cc(N2CCC(N3CCCCC3)CC2)c2c(C3CCC3)nn(-c3ccc(F)cc3)c2n1 [Compound 450, 4-([1,4'-bipiperidin]-1'-yl)-3-cyclobutyl-1-(4-fluorophenyl)-N-(methanesulfonyl)-1H-pyrazolo[3,4-b]pyridine-6-carboxamide] | 253.5 | 617 | 443.25 | 246 |  |  |
| O=C(NS(=O)(=O)C1CCOC1)c1cc(N2CCC(N3CCCCC3)CC2)c2c(C3CCC3)nn(-c3ccc(F)cc3)c2n1 (centres unmarked) [Compound 451, 4-([1,4'-bipiperidin]-1'-yl)-3-cyclobutyl-1-(4-fluorophenyl)-N-(oxolane-3-sulfonyl)-1H-pyrazolo[3,4-b]pyridine-6-carboxamide] | 184.1 | 1700 | 391 | 2100 |  |  |
| O=C(NS(=O)(=O)C1CCOC1)c1cc(N2CCC(CCN3CCOCC3)CC2)c2c(C3CCC3)nn(-c3ccc(F)cc3)c2n1 (centres unmarked) [Compound 452, 3-cyclobutyl-1-(4-fluorophenyl)-4-{4-[2-(morpholin-4-yl)ethyl]piperidin-1-yl}-N-(oxolane-3-sulfonyl)-1H-pyrazolo[3,4-b]pyridine-6-carboxamide] | 239.8 | 408 | 478.25 | 942 |  |  |
| O=C(NS(=O)(=O)N1CCC(N2CCCCC2)CC1)c1cc(N2CCC(N3CCOCC3)CC2)c2c(C3CCC3)nn(-c3ccccc3)c2n1 [Compound 453, N-([1,4'-bipiperidine]-1'-sulfonyl)-3-cyclobutyl-4-[4-(morpholin-4-yl)piperidin-1-yl]-1-phenyl-1H-pyrazolo[3,4-b]pyridine-6-carboxamide] | 149.3 | 403 | 385.1 | 319 |  |  |
| O=C(NS(=O)(=O)CCCN1CCOCC1)c1cc(N2CCC(N3CCCCC3)CC2)c2c(C3CCC3)nn(-c3ccccc3)c2n1 [Compound 454, 4-([1,4′-bipiperidin]-1′-yl)-3-cyclobutyl-N-[3-(morpholin-4-yl)propane-1-sulfonyl]-1-phenyl-1H-pyrazolo[3,4-b]pyridine-6-carboxamide] | 168.1 |  | 430.2 |  | 1670 | 639 |
| CCOC(=O)N1CCC(NS(=O)(=O)NC(=O)c2cc(N3CCC(CN4CCCC4)CC3)c3c(C4CCC4)nn(-c4ccccc4)c3n2)CC1 [Compound 457, ethyl 4-{[(3-cyclobutyl-1-phenyl-4-{4-[(pyrrolidin-1-yl)methyl]piperidin-1-yl}-1H-pyrazolo[3,4-b]pyridine-6-carbonyl)sulfamoyl]amino}piperidine-1-carboxylate] | 272.2 | 128 | 508 | 139 |  |  |
| COC[C@H]1CCCN1C1CCN(S(=O)(=O)NC(=O)c2cc(N3CCC(CN4CCCC4)CC3)c3c(C4CCC4)nn(-c4ccccc4)c3n2)CC1 [Compound 458, 3-cyclobutyl-N-{4-[(2R)-2-(methoxymethyl)pyrrolidin-1-yl]piperidine-1-sulfonyl}-1-phenyl-4-{4-[(pyrrolidin-1-yl)methyl]piperidin-1-yl}-1H-pyrazolo[3,4-b]pyridine-6-carboxamide] | 124.4 | 794 | 282.8 | 920 |  |  |
| O=C(NS(=O)(=O)N1CCC(F)CC1)c1cc(N2CCC(CN3CCCC3)CC2)c2c(C3CCC3)nn(-c3ccccc3)c2n1 [Compound 459, 3-cyclobutyl-N-(4-fluoropiperidine-1-sulfonyl)-1-phenyl-4-{4-[(pyrrolidin-1-yl)methyl]piperidin-1-yl}-1H-pyrazolo[3,4-b]pyridine-6-carboxamide] | 225.65 | 149 | 388.87 | 96.1 |  |  |
| CN1CCN(S(=O)(=O)NC(=O)c2cc(N3CCC(CN4CCCC4)CC3)c3c(C4CCC4)nn(-c4ccccc4)c3n2)CC1 [Compound 460, 3-cyclobutyl-N-(4-methylpiperazine-1-sulfonyl)-1-phenyl-4-{4-[(pyrrolidin-1-yl)methyl]piperidin-1-yl}-1H-pyrazolo[3,4-b]pyridine-6-carboxamide] | 125.8 | 596 | 306.75 | 505 |  |  |
| CC1(S(=O)(=O)NC(=O)c2cc(N3CCC(CN4CCCC4)CC3)c3c(C4CCC4)nn(-c4ccccc4)c3n2)CC1 [Compound 461, 3-cyclobutyl-N-(1-methylcyclopropane-1-sulfonyl)-1-phenyl-4-{4-[(pyrrolidin-1-yl)methyl]piperidin-1-yl}-1H-pyrazolo[3,4-b]pyridine-6-carboxamide] | 212.3 | 209 | 364.1 | 177 |  |  |
| O=C(NS(=O)(=O)C1CC1)c1cc(N2CCC(CN3CCCC3)CC2)c2c(C3CCC3)nn(-c3ccccc3)c2n1 [Compound 462, 3-cyclobutyl-N-(cyclopropanesulfonyl)-1-phenyl-4-{4-[(pyrrolidin-1-yl)methyl]piperidin-1-yl}-1H-pyrazolo[3,4-b]pyridine-6-carboxamide] | 317.4 | 776 | 495.1 | 107 |  |  |
| CCS(=O)(=O)NC(=O)c1cc(N2CCC(CN3CCCC3)CC2)c2c(C3CCC3)nn(-c3ccccc3)c2n1 [Compound 463, 3-cyclobutyl-N-(ethanesulfonyl)-1-phenyl-4-{4-[(pyrrolidin-1-yl)methyl]piperidin-1-yl}-1H-pyrazolo[3,4-b]pyridine-6-carboxamide] | 263.9 | 419 | 490.6 | 194 |  |  |
| COCCS(=O)(=O)NC(=O)c1cc(N2CCC(CN3CCCC3)CC2)c2c(C3CCC3)nn(-c3ccccc3)c2n1 [Compound 464, 3-cyclobutyl-N-(2-methoxyethanesulfonyl)-1-phenyl-4-{4-[(pyrrolidin-1-yl)methyl]piperidin-1-yl}-1H-pyrazolo[3,4-b]pyridine-6-carboxamide] | 277.5 | 306 | 423.3 | 170 |  |  |
| CC(C)(C)S(=O)(=O)NC(=O)c1cc(N2CCC(CN3CCCC3)CC2)c2c(C3CCC3)nn(-c3ccccc3)c2n1 [Compound 465, 3-cyclobutyl-N-(2-methylpropane-2-sulfonyl)-1-phenyl-4-{4-[(pyrrolidin-1-yl)methyl]piperidin-1-yl}-1H-pyrazolo[3,4-b]pyridine-6-carboxamide] | 131.6 | 313 | 293.15 | 360 |  |  |
| CCS(=O)(=O)NC(=O)c1cc(N2CCC(N3CCOCC3)CC2)c2c(C3CCC3)nn(-c3ccc(F)cc3)c2n1 [Compound 466, 3-cyclobutyl-N-(ethanesulfonyl)-1-(4-fluorophenyl)-4-[4-(morpholin-4-yl)piperidin-1-yl]-1H-pyrazolo[3,4-b]pyridine-6-carboxamide] | 318.7 | 176 | 522.47 | 64.1 |  |  |
| CN(C)S(=O)(=O)NC(=O)c1cc(-c2ccc(CN3CCOCC3)cc2)c2c(C3CCC3)nn(C3CCCCC3)c2n1 [Compound 475, 3-cyclobutyl-1-cyclohexyl-N-(dimethylsulfamoyl)-4-{4-[(morpholin-4-yl)methyl]phenyl}-1H-pyrazolo[3,4-b]pyridine-6-carboxamide] | 140.1 | 179 | 289.95 | 112 |  |  |
| CN(C)S(=O)(=O)NC(=O)c1cc(-c2ccc(CCN3CCOCC3)cc2)c2c(C3CCC3)nn(C3CCCCC3)c2n1 [Compound 476, 3-cyclobutyl-1-cyclohexyl-N-(dimethylsulfamoyl)-4-{4-[2-(morpholin-4-yl)ethyl]phenyl}-1H-pyrazolo[3,4-b]pyridine-6-carboxamide] | 134.2 | 215 | 355.65 | 151 |  |  |
| C#CCCS(=O)(=O)NC(=O)c1cc(N2CCC(N3CCOCC3)CC2)c2c(C3CCC3)nn(-c3ccc(F)cc3)c2n1 [Compound 477, N-(but-3-yne-1-sulfonyl)-3-cyclobutyl-1-(4-fluorophenyl)-4-[4-(morpholin-4-yl)piperidin-1-yl]-1H-pyrazolo[3,4-b]pyridine-6-carboxamide] | 341.4 | 117 | 536.7 | 34.7 |  |  |
| CCS(=O)(=O)NC(=O)c1cc(N2CCC(N3CCCCC3)CC2)c2c(C3CCC3)nn(-c3ccc(F)cc3)c2n1 [Compound 478, 4-([1,4'-bipiperidin]-1'-yl)-3-cyclobutyl-N-(ethanesulfonyl)-1-(4-fluorophenyl)-1H-pyrazolo[3,4-b]pyridine-6-carboxamide] | 295.4 | 2640 | 476.7 | 127 |  |  |
